Measured values as given in US20130072506A1, “6,8-DISUBSTITUTED PURINE COMPOSITIONS” (priority 2011, published 2013).
Like-named read-outs stand apart in the source and are kept apart here.

Columns and labels:
[1] = system: T-lymphoblastic leukemia cell line CEM; experiment: In vitro cytotoxic activity (metabolisation of Calcein AM); type: cell-based, human; settings: CEM cells, 72 hours incubation, called GI50, read-out: Cell line tested/IC50 (μmol/L) CEM
Text: (§1) In vitro Cytotoxic Activity (Metabolisation of Calcein AM). Because toxic compounds negatively influence metabolic processes of cells, many standard cytotoxicity assays are based on measurement of metabolisation rate of various artificial substrates. Resulting product is then quantified, for example, by means of spectrometry. The assays can be easily modified for use in 96-well plates. For evaluation of cytotoxicity of the 6,8-disubstituted purines of this invention, a microtiter assay based on quantification of metabolisation of Calcein AM was used. The assay is widely used in drug screening programs and in chemosensitivity testing. In live cells, Calcein AM is enzymatically hydrolysed and accumulation of resulting calcein is manifested by green fluorescence.
(§2) The following human cell lines were used for routine screening of the compounds: normal diploid fibroblasts BJ, T-lymphoblastic leukemia cell line CEM, promyelocytic leukemia cell line HL-60, erytroid leukemia cell line K-562, breast carcinoma cell line MCF-7, osteosarcoma cell line HOS and melanoma cell line G-361. The cells were maintained in Nunc/Corning 80 cm^2 plastic tissue culture flasks and cultured in cell culture medium (DMEM with 5 g/l glucose, 2 mM glutamine, […] penicillin, 100 mmg/ml streptomycin, 10% fetal calf serum and sodium bicarbonate).
(§3) The cell suspensions were prepared and diluted according to the particular cell type and the expected target cell density (2.500-30.000 cells per well based on cell growth characteristics) and pipetted (80 μl) into 96-well plates. Inoculates were allowed a pre-incubation period of 24 hours at 37° C. and 5% CO2 for stabilization. Tested compound was added in total volume of […] of water at time zero. Usually, test compound was evaluated at six 3-fold dilutions. In routine testing, the highest concentration tested was 100 μM, but it could have been adjusted because of limited solubility of a compound. All drug concentrations were tested in triplicates.
(§4) Incubations of cells with the test compounds lasted for 72 hours at 37° C., in 5% CO2 atmosphere and 100% humidity. At the end of incubation period Calcein AM in PBS was added into final concentration of 1 μg/ml. After another 1 hour of incubation fluorescence (FD) was measured with the Labsystem FIA Reader Fluoroscan Ascent (UK). Growth inhibition (GI) was estimated using the following equitation: GI=(mean FDdrug exposed wells−mean FDblank)/(mean FDcontrol wells−mean FDblank)×100%. The GI50 value, the drug concentration causing 50% reduction of Calcein AM conversion, was calculated from the obtained dose response curves.

[2] = system: breast carcinoma cell line MCF-7; experiment: as above; type: cell-based, human; settings: MCF7 cells, 72 hours incubation, called GI50, read-out: Cell line tested/IC50 (μmol/L) MCF7
Text: as §1, §2, §3, §4

[3] = system: erytroid leukemia cell line K-562; experiment: as above; type: cell-based, human; settings: 72 hours incubation, called GI50, read-out: Cell line tested/IC50 (μmol/L) K-562
Text: as §1, §2, §3, §4

melanoma cell line G-361 = experiment: as above; type: cell-based, human; settings: G-361 cells, 72 hours incubation, called GI50, read-out: Cell line tested/IC50 (μmol/L) G-361
Text: as §1, §2, §3, §4

[4] = system: normal diploid fibroblasts BJ; experiment: as above; type: cell-based, human; settings: BJ cells, 72 hours incubation, called GI50, read-out: Cell line tested/IC50 (μmol/L) BJ
Text: as §1, §2, §3, §4

[5] = system: osteosarcoma cell line HOS; experiment: as above; type: cell-based, human; settings: HOS cells, 72 hours incubation, called GI50, read-out: Cell line tested/IC50 (μmol/L) HOS
Text: as §1, §2, §3, §4

[6] = system: Human diploid fibroblast BJ; experiment: In vitro cytotoxic activity (metabolisation of MTT); type: cell-based; settings: 72 hours, BJ passage 18-22
Procedure: In vitro Cytotoxic Activity (metabolisation of Mtt). MTT ([…]) assay is a standard colorimetric assay for evaluation of cytotoxicity. Mitochondrial dehydrogenase activity converts yellow MTT into violet formazan which is measured by means of spectrometry.
Human diploid fibroblast BJ (passage 18-22) were seeded into 96-well plate (5.000 cells per well). After 6 hours cultivation medium (DMEM with 5 g/l glucose, 2 mM glutamine, 100 U/ml penicillin, 100 mmg/ml streptomycin, 10% fetal calf serum and sodium bicarbonate) was replaced with the cultivation medium containing test compounds in concentration range of 0-200 μM. Highest concentration was adjusted if the solubility of the compound was limiting. Every concentration was tested in pentaplicate. MTT was added to the cells after 72 hours incubation (final concentration 0.5 mg/ml) and incubation continued for another 3 hours. MTT was solubilised by DMSO and absorbance at 570 nm was measured. Growth inhibition (GI) was estimated using the following equitation: GI=(mean A drug exposed wells−mean Ablank/mean Acontrol wells−mean Ablank)×100%. The GI20 value, the drug concentration causing 20% decrease in mitochondrial dehydrogenase activity, was calculated from the obtained dose response curves.

[7] = Homo sapiens, K562, K-562 cells

Row | SMILES | IC50 [1] [µmol/L] | IC50 [2] [µmol/L] | IC50 ([3]; K-562 cells) [µmol/L] | IC50 (melanoma cell line G-361) [µmol/L] | IC50 [4] [µmol/L] | IC50 [5] [µmol/L] | GI20 [6] [µM] | IC50 ([1]; Homo sapiens, CCRF-CEM) [µmol/L] | IC50 ([2]; Homo sapiens) [µmol/L] | IC50 [3, 7] [µmol/L] | IC50 (melanoma cell line G-361; Homo sapiens) [µmol/L] | IC50 ([4]; Homo sapiens) [µmol/L] | IC50 ([5]; Homo sapiens) [µmol/L]
1 | CC(=CCNc1ncnc2nc(Br)[nH]c12)CO [Compound 3] | > 50 | > 50 | > 50 | > 50 | > 50 | > 50 | – | – | – | – | – | – | –
2 | Oc1cccc(CNc2ncnc3nc(Cl)[nH]c23)c1O [Compound 46] | > 100 | > 100 | > 50 | > 100 | > 100 | > 100 | >200 | – | – | – | – | – | –
3 | Oc1cc(O)cc(CNc2ncnc3nc(Cl)[nH]c23)c1 [Compound 47] | > 100 | > 100 | > 100 | > 100 | > 100 | > 100 | >200 | – | – | – | – | – | –
4 | CC(=CCNc1ncnc2nc(N(C)C)[nH]c12)CO [Compound 63] | > 50 | > 50 | > 50 | > 50 | > 50 | > 50 | >100 | – | – | – | – | – | –
5 | CC(CO)CCNc1ncnc2nc(N(C)C)[nH]c12 (stereo not shown) [Compound 64] | > 50 | > 50 | > 50 | > 50 | > 50 | > 50 | >100 | – | – | – | – | – | –
6 | Nc1nc2ncnc(NCc3ccccc3Br)c2[nH]1 [Compound 93] | > 50 | > 50 | > 50 | > 50 | > 50 | > 50 | – | – | – | – | – | – | –
7 | COc1nc2ncnc(NCC=C(C)CO)c2[nH]1 [Compound 122] | > 50 | > 50 | > 50 | > 50 | > 50 | > 50 | – | – | – | – | – | – | –
8 | COc1nc2ncnc(NCc3cccc(OC)c3O)c2[nH]1 [Compound 130] | > 50 | > 50 | > 50 | > 50 | > 50 | > 50 | – | – | – | – | – | – | –
9 | Sc1nc2ncnc(NCc3ccco3)c2[nH]1 [Compound 137, 6-furfurylamino-8-mercaptopurine] | – | – | – | – | – | – | – | > 50 | > 50 | > 50 | > 50 | > 50 | > 50
10 | CSc1nc2ncnc(NCc3ccco3)c2[nH]1 [Compound 147, 6-furfurylamino-8-methylthiopurine] | – | – | – | – | – | – | – | > 50 | > 50 | > 50 | > 50 | > 50 | > 50
11 | Oc1nc2ncnc(NCc3ccco3)c2[nH]1 [Compound 166] | > 50 | > 50 | > 50 | > 50 | > 50 | > 50 | – | – | – | – | – | – | –
12 | CC(=CCNc1ncnc2nc(O)[nH]c12)CO [Compound 168] | > 50 | > 50 | > 50 | > 50 | > 50 | > 50 | – | – | – | – | – | – | –
13 | Oc1cccc(CNc2ncnc3nc(O)[nH]c23)c1 [Compound 169] | > 50 | > 50 | > 50 | > 50 | > 50 | > 50 | – | – | – | – | – | – | –
14 | COc1cccc(CNc2ncnc3nc(O)[nH]c23)c1 [Compound 170] | > 50 | > 50 | > 50 | > 50 | > 50 | > 50 | – | – | – | – | – | – | –
15 | Oc1nc2ncnc(Nc3ccccc3)c2[nH]1 [Compound 171] | > 50 | > 50 | > 50 | > 50 | > 50 | > 50 | – | – | – | – | – | – | –
16 | COc1cccc(Nc2ncnc3nc(O)[nH]c23)c1 [Compound 172] | > 50 | > 50 | > 50 | > 50 | > 50 | > 50 | – | – | – | – | – | – | –
17 | N#Cc1nc2ncnc(NCc3ccco3)c2[nH]1 [Compound 173] | > 50 | > 50 | > 50 | > 50 | > 50 | > 50 | – | – | – | – | – | – | –
18 | NCc1nc2ncnc(NCc3ccco3)c2[nH]1 [Compound 180] | > 50 | > 50 | > 50 | > 50 | > 50 | > 50 | – | – | – | – | – | – | –
19 | NCc1nc2ncnc(NCc3cccc(F)c3)c2[nH]1 [Compound 182] | > 50 | > 50 | > 50 | > 50 | > 50 | > 50 | – | – | – | – | – | – | –
20 | COc1cccc(CNc2ncnc3nc(CN)[nH]c23)c1 [Compound 183] | > 50 | > 50 | > 50 | > 50 | > 50 | > 50 | – | – | – | – | – | – | –
21 | NCc1nc2ncnc(Nc3ccccc3)c2[nH]1 [Compound 184] | > 50 | > 50 | > 50 | > 50 | > 50 | > 50 | – | – | – | – | – | – | –
22 | COc1ccccc1Nc1ncnc2nc(CN)[nH]c12 [Compound 185] | > 50 | > 50 | > 50 | > 50 | > 50 | > 50 | – | – | – | – | – | – | –
23 | COc1cccc(Nc2ncnc3nc(CN)[nH]c23)c1 [Compound 186] | > 50 | > 50 | > 50 | > 50 | > 50 | > 50 | – | – | – | – | – | – | –
24 | COC(=O)c1nc2ncnc(NCc3ccco3)c2[nH]1 [Compound 187, 6-furfurylamino-8-(methoxycarbonyl)purine] | – | – | – | – | – | – | – | > 50 | > 50 | > 50 | > 50 | > 50 | > 50
25 | CCOC(=O)c1nc2ncnc(NCc3ccco3)c2[nH]1 [Compound 194, 6-furfurylamino-8-(ethoxycarbonyl)purine] | – | – | – | – | – | – | – | > 50 | > 50 | > 50 | > 50 | > 50 | > 50
26 | O=C(O)c1nc2ncnc(NCc3ccco3)c2[nH]1 [Compound 201] | > 50 | > 50 | > 50 | > 50 | > 50 | > 50 | – | – | – | – | – | – | –
27 | NCCCNc1nc2ncnc(NCc3ccco3)c2[nH]1 [Compound 208, 6-furfurylamino-8-(aminopropylamino)purine] | – | – | – | – | – | – | – | > 50 | > 50 | > 50 | > 50 | > 50 | > 50
